Our source for the IC50 values is US12246008B2, “4-amino or 4-alkoxy-substituted aryl sulfonamide compounds with selective activity in voltage-gated sodium channels” (Merck Sharp & Dohme LLC, priority 2018, dated 2025).

Where two headings read alike, the source gives them in different places.

Assay in all cases: Qube automated patch-clamp assay, inhibition of sodium current
Format in all cases: cell-based

The target in one assay is NaV1.5 (Homo sapiens, UniProt Q14524). The conditions noted are these: holding potential −80 mV; max concentration tested 33750 nM. On the procedure:
(§1) Compounds were tested on human Nav1.7 and Nav1.6 channels stably expressed in HEK 293 cells. […] Cells were sealed on a planar substrate using the multihole technology. Cells expressing human Nav1.7 channels were held at −75 mV or −80 mV. Cells expressing human Nav1.6 channels were held at −65 mV. A train of 6 consecutive test pulses to −10 mV, preceded by 8 s prepulses to −115 mV, was applied at a frequency of 0.1 Hz before and after compound addition. Cells in each Qchip well were incubated in compound for 5 minutes before measuring inhibition. Peak currents were measured in control conditions and after compound addition. The following recording solutions were used (mM). External Nav1.6: 150 NaCl, 2 CaCl2), 5 KCl, 1 Mg Cl2, 10 HEPES, 12 Dextrose; external Nav1.7: 40 NaCl, 120 NMDG, 1 KCl, 0.5 MgCl2, 5 HEPES, 2.7 CaCl2); internal: 120 CsF, 30 CsCl, 10 EGTA, 5 HEPES, 5 NaF, 2 MgCl2. Compounds were prepared as 10 mM stock solutions in DMSO. 10 point compound titrations were generated using the Echo acoustic liquid handling instrument and glass coated 384 well plates. The final DMSO concentration in the assay was 0.3%. For all electrophysiology experiments, offline analysis was used to determine percent inhibition as a function of drug concentration. IC50 values were determined by fitting to the Hill equation.
(§2) The various compounds in EXAMPLES 1 through 43 and TABLE 2 exemplified above were assayed for activity and selectivity using the foregoing Qube® technique. The results are reported in TABLE 3 in a format expressing the identification of the compound with reference EXAMPLE followed by the observed potency in nM for NaV1.7, NaV1.6 and NaV1.5. NA signifies not applicable and the max concentration tested is 33750 nM.

Assay [1] deals with T1, human Nav1.6 channels stably expressed in HEK 293 cells (Homo sapiens, UniProt Q9UQD0).
T1 construct: expressed in transfected cells; host or cells: HEK 293
The settings on record: holding potential −65 mV; max concentration tested 33750 nM. On the procedure: (§3) Qube™ Experimental Procedure:
as §1, §2

Assay [2] has as its target T2, human Nav1.7 channels stably expressed in HEK 293 cells (Homo sapiens, UniProt Q15858).
T2 construct: expressed in transfected cells; host or cells: HEK 293
The conditions noted are these: max concentration tested 33750 nM, read-out: NaV1.7 (nM). On the procedure: as §3, §1, §2

Setting [3] is: holding potential −80 mV, −80 mV.
Where [4] appears, read: holding potential −75 mV, −75 mV.

Sequence of NaV1.5 (Q14524 whole entry): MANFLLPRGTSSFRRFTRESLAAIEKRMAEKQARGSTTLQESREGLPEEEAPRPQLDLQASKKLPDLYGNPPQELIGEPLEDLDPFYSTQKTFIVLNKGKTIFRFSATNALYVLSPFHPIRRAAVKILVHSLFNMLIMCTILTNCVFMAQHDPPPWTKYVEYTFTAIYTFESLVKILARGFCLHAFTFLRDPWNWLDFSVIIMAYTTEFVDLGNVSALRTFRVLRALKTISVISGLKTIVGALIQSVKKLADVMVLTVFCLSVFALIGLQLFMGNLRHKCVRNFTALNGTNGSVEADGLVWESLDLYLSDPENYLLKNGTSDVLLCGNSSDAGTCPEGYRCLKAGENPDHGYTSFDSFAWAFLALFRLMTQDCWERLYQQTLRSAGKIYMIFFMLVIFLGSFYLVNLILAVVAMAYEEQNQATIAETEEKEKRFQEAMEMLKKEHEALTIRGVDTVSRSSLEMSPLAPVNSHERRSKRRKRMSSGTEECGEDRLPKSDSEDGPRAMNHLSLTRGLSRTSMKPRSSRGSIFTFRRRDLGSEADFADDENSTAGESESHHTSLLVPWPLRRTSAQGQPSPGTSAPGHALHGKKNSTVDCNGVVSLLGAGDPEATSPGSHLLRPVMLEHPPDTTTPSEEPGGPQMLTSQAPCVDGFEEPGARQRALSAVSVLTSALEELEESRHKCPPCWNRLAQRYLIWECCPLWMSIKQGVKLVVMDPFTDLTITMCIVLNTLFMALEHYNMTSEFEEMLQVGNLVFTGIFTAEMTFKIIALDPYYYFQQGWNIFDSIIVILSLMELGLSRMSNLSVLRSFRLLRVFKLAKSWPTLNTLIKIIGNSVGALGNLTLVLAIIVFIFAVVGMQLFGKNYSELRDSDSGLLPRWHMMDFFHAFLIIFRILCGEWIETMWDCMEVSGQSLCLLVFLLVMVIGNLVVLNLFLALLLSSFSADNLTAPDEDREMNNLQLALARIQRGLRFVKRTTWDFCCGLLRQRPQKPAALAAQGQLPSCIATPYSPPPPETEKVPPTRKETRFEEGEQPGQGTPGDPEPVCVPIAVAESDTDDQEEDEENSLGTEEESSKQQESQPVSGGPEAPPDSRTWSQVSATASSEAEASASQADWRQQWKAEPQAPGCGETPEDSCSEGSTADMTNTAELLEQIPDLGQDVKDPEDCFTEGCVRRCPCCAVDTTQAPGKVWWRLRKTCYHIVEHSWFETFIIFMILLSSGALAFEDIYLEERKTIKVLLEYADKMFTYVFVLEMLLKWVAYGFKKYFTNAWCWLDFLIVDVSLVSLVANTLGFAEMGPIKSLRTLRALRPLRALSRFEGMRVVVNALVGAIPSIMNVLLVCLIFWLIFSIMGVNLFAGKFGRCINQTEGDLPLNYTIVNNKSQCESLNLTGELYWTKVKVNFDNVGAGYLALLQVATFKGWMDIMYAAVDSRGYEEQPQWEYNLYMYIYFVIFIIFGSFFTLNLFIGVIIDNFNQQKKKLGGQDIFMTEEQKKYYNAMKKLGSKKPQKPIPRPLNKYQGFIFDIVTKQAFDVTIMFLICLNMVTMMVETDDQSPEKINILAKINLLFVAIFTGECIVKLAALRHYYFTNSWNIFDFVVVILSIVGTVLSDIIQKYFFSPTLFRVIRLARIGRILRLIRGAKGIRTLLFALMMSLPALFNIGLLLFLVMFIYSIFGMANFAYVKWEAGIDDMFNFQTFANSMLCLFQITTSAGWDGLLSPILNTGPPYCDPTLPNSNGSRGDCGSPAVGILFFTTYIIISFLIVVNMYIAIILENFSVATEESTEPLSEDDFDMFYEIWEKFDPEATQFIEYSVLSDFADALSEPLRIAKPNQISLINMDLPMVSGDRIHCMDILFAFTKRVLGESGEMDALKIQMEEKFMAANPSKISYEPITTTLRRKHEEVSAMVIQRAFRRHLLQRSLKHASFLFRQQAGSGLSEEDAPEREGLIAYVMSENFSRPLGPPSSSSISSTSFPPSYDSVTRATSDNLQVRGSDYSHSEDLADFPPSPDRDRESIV
T1 sequence (Q9UQD0 whole entry): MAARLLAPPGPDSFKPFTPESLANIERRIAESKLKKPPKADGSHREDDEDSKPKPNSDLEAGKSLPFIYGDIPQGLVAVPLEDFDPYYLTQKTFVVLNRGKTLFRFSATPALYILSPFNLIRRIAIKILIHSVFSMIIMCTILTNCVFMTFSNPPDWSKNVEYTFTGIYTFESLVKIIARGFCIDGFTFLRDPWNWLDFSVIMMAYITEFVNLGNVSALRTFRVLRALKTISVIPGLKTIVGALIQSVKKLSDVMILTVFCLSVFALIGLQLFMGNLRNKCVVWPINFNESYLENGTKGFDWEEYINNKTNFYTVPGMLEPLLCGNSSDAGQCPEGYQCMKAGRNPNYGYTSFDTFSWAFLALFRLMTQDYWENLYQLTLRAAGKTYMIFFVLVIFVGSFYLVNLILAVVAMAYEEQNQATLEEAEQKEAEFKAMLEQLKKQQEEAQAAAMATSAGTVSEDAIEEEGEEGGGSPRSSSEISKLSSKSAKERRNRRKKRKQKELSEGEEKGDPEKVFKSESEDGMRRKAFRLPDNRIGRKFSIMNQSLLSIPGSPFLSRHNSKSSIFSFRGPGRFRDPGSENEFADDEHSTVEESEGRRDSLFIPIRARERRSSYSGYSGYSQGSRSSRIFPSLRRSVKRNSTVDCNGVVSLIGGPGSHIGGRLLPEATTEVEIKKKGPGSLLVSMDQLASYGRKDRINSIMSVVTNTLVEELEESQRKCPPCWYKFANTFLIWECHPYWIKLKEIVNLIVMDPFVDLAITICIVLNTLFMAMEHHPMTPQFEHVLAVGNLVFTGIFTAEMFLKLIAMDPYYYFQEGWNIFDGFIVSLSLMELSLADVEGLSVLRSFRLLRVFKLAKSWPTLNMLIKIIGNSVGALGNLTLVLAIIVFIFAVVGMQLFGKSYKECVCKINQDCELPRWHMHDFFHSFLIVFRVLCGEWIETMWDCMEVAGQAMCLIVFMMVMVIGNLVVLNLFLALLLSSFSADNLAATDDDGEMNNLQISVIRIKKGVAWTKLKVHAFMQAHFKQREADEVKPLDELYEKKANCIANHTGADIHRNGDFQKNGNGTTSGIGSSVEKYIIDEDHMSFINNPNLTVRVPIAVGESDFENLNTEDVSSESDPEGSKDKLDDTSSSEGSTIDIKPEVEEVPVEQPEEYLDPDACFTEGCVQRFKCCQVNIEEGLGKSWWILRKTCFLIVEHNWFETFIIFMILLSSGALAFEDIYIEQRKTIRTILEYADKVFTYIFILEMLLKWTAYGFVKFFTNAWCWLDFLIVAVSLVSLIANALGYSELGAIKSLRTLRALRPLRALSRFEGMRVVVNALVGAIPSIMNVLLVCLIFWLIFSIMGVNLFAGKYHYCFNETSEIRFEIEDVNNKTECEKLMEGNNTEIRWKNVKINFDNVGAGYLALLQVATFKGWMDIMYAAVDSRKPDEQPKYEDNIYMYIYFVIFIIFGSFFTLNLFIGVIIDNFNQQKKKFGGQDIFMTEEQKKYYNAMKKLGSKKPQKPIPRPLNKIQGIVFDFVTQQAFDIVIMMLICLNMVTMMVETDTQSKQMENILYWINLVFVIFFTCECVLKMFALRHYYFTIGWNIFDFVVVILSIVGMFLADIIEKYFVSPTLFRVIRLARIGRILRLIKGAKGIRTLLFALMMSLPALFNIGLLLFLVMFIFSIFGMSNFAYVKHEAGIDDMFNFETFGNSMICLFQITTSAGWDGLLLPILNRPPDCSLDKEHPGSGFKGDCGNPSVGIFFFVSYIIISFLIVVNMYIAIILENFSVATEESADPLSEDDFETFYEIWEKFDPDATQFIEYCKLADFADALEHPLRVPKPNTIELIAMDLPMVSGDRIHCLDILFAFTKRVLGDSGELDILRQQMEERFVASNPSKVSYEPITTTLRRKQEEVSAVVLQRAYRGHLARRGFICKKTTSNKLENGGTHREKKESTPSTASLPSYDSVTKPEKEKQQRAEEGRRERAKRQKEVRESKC

`C[C@@H](N)C(CNc1cc(F)c(S(=O)(=O)Nc2ncns2)cc1F)CC1CCCCC1CCN` (single isomer, unassigned) [Example 60]: the IC50 on NaV1.5 is 20600 nM; in assay [1], over 33800 nM; in assay [2] (setting [3]), 12 nM.
Consider `CC(C)[C@@H](N)[C@H](CNc1cc(F)c(S(=O)(=O)Nc2ncns2)cc1Cl)CC(C)(C)CCN` [Example 27, 4-(((S)-6-amino-2-((R)-1-amino-2-methylpropyl)-4,4-dimethylhexyl)amino)-5-chloro-2-fluoro-N-(1,2,4-thiadiazol-5-yl)benzenesulfonamide bis(2,2,2-trifluoroacetate)], for which the IC50 against NaV1.5 was over 33800 nM; in assay [1], over 33800 nM; in assay [2] (setting [4]), 41 nM.
For `C[C@H]1NCCNCC(C)(C)C[C@H]1CNc1cc(F)c(S(=O)(=O)Nc2ncns2)cc1Cl` [Example 5, 5-chloro-2-fluoro-N-(1,2,4-thiadiazol-5-yl)-4-((((5R,6S)-5,8,8-trimethyl-1,4-diazonan-6-yl)methyl)amino)benzenesulfonamide], the IC50 at NaV1.5 was over 33800 nM; in assay [1], 20700 nM; in assay [2] (setting [4]) it was 118 nM.
On the same counts, the results for `COc1cc(S(=O)(=O)Nc2ncns2)c(F)cc1NCC(CC1(CN)CCC1)[C@@H](C)N` (some centres unmarked) [Example 73] are over 33800 nM, over 33800 nM and 23 nM.
For the compound `C[C@@H](N)[C@H](CNc1cc(F)c(S(=O)(=O)Nc2ncns2)cc1F)CC(N)CC(F)(F)F` (single isomer, unassigned) [Example 85], the IC50 at NaV1.5 is over 33800 nM; in assay [1] it was over 33800 nM; in assay [2] (setting [4]), 72 nM.
With `C[C@@H](N)C(CNc1cc(F)c(S(=O)(=O)Nc2ncns2)cc1F)CC1CCCCC1CCN` (single isomer, unassigned) [Example 61], the results for the IC50 (against NaV1.5; in assay [1]; in assay [2] (setting [3])) were over 33800 nM, over 33800 nM and 16 nM, respectively.
As for `C[C@@H](N)[C@H](CNc1cc(F)c(S(=O)(=O)Nc2ncns2)cc1Cl)CC(N)C(F)(F)F` (single isomer, unassigned) [Example 2], the IC50 was over 33800 nM against NaV1.5, 13800 nM in assay [1] and 84 nM in assay [2] (setting [4]).
Regarding `C[C@@H](N)[C@H](CNc1cc(F)c(S(=O)(=O)Nc2ncns2)cc1-c1nccs1)CC(C)(C)CCN` [Example 40, 4-(((S)-6-amino-2-((R)-1-aminoethyl)-4,4-dimethylhexyl)amino)-2-fluoro-N-(1,2,4-thiadiazol-5-yl)-5-(thiazol-2-yl)benzenesulfonamide], the IC50 was over 33800 nM at NaV1.5, 11600 nM in assay [1] and 17 nM in assay [2] (setting [3]).
With `C[C@@H](N)C(CNc1cc(F)c(S(=O)(=O)Nc2ncns2)cc1F)CC1CC(C)(C)CN1` (single isomer, unassigned) [Example 17], the IC50 on NaV1.5 was over 33800 nM; in assay [1], over 33800 nM; in assay [2] (setting [3]) it was 113 nM.
Regarding `C[C@@H](N)C(CNc1cc(F)c(S(=O)(=O)Nc2ncns2)cc1Cl)CN1CCCC1` (some centres unmarked) [Example 110], the values for the IC50 (on NaV1.5; in assay [1]; in assay [2] (setting [4])) were over 33800 nM, over 33800 nM and 110 nM, respectively.
`C[C@@H](N)[C@H](CNc1ncc(S(=O)(=O)Nc2ncns2)cc1Br)CC(C)(C)CCN` [Example 30, 6-(((S)-6-amino-2-((R)-1-aminoethyl)-4,4-dimethylhexyl)amino)-5-bromo-N-(1,2,4-thiadiazol-5-yl)pyridine-3-sulfonamide]: the IC50 at NaV1.5 is over 33800 nM; in assay [1], over 33800 nM; in assay [2] (setting [4]), 77 nM.
For the compound `C[C@@H](N)C(CNc1cc(F)c(S(=O)(=O)Nc2ncns2)cc1Br)CC1(CCN)CC(F)(F)C1` (single isomer, unassigned) [Example 57], the IC50 at NaV1.5 was over 33800 nM; in assay [1] it was 224 nM; in assay [2] (setting [3]), 10 nM.
Taken in the same sequence, the figures for `C[C@@H](N)C(CNc1cc(F)c(S(=O)(=O)Nc2ncns2)cc1F)CC1(C)CCC1CN` (single isomer, unassigned) [Example 53] were over 33800 nM, over 33800 nM and 165 nM.
As for `C[C@@H](N)[C@H](CNc1cc(F)c(S(=O)(=O)Nc2ncns2)cc1F)CC1(CCN)CCC1` [Example 10, 4-(((2S,3R)-3-amino-2-((1-(2-aminoethyl)cyclobutyl)methyl)butyl)amino)-2,5-difluoro-N-(1,2,4-thiadiazol-5-yl)benzenesulfonamide], the IC50 on NaV1.5 is over 33800 nM; in assay [1], over 33800 nM; in assay [2] (setting [4]) it was 8 nM.
Consider `C[C@@H](N)[C@H](CNc1cc(F)c(S(=O)(=O)Nc2ncns2)cc1CO)CC(N)C1CC1` (some centres unmarked) [Example 80], for which the IC50 against NaV1.5 is over 33800 nM; in assay [1] it was over 33800 nM; in assay [2] (setting [4]), 71 nM.
`C[C@@H](N)C(CNc1ccc(S(=O)(=O)Nc2ncns2)c(F)c1)CC1(CCN)CC(F)(F)C1` (single isomer, unassigned) [Example 59]: the IC50 was over 33800 nM at NaV1.5, over 33800 nM in assay [1] and 38 nM in assay [2] (setting [3]).
Regarding `C[C@@H](N)[C@@H](CC(C)(C)CCN)C1CCc2cc(S(=O)(=O)Nc3ncns3)c(F)cc2O1` (single isomer, unassigned) [Example 42], the IC50 against NaV1.5 was over 33800 nM; in assay [1], over 33800 nM; in assay [2] (setting [3]), 306 nM.
Regarding `C[C@@H](N)[C@H](CNc1cc(F)c(S(=O)(=O)Nc2ncns2)cc1F)CC(N)C1(C)CC1` (stereo partly drawn) [Example 18, 4-(((2S)-4-amino-2-((R)-1-aminoethyl)-4-(1-methylcyclopropyl)butyl)amino)-2,5-difluoro-N-(1,2,4-thiadiazol-5-yl)benzenesulfonamide], the results for the IC50 (on NaV1.5; in assay [1]; in assay [2] (setting [3])) were over 33800 nM, over 33800 nM and 149 nM, respectively.
As to `C[C@@H](N)[C@H](CNc1cc(F)c(S(=O)(=O)Nc2ncns2)cc1F)CC1(CCN(C)C)CCC1` [Example 43, 4-(((2S,3R)-3-amino-2-((1-(2-(dimethylamino)ethyl)cyclobutyl)methyl)butyl)amino)-2,5-difluoro-N-(1,2,4-thiadiazol-5-yl)benzenesulfonamide], the results for the IC50 (against NaV1.5; in assay [1]; in assay [2] (setting [3])) were over 33800 nM, over 33800 nM and 61 nM, respectively.
On to `C[C@@H](N)C(CNc1cc(F)c(S(=O)(=O)Nc2ncns2)cc1Cl)CC(C)(C)CN` (single isomer, unassigned) [Example 3], for which the results for the IC50 (against NaV1.5; in assay [1]; in assay [2] (setting [4])) were over 33800 nM, over 33800 nM and 41 nM, respectively.
In the case of `C[C@@H](N)C(CNc1cc(F)c(S(=O)(=O)Nc2ncns2)cc1F)CC1CCCCC1CCN` (single isomer, unassigned) [Example 65], the results for the IC50 (at NaV1.5; in assay [1]; in assay [2] (setting [3])) were over 33800 nM, over 33800 nM and 271 nM, respectively.
For the compound `C[C@@H](N)C(CNc1cc(F)c(S(=O)(=O)Nc2ncns2)cc1F)CC1CCCCC1CCN` (single isomer, unassigned) [Example 63], the IC50 against NaV1.5 was over 33800 nM; in assay [1], over 33800 nM; in assay [2] (setting [3]), 156 nM.
`C[C@@H](N)C(CNc1cc(F)c(S(=O)(=O)Nc2ncns2)cc1F)CC1NC2CCC1C2` (single isomer, unassigned) [Example 111]: the figures for the IC50 (at NaV1.5; in assay [1]; in assay [2] (setting [3])) were 13000 nM, over 33800 nM and 65 nM, respectively.
For `C[C@@H](N)C(CNc1cc(F)c(S(=O)(=O)Nc2ncns2)cc1F)CC1CCCC1CN` (single isomer, unassigned) [Example 47], the figures for the IC50 in assay [1] and in assay [2] (setting [3]) were over 33800 nM and 3610 nM, respectively.
